In patent publication US20250360185A1, “COMPOSITIONS COMPRISING PEDF-DERIVED SHORT PEPTIDES FOR THE TREATMENT OF DRY EYE DISEASES” (BRIM Biotechnology, Inc., priority 2022, published 2025):
Entries after “also recorded” stand apart in the source; their conditions may differ.

Key:
Type in all cases: in vivo, human
[1] = tested on: subjects with DED; test: Visual analog scale (VAS) ocular symptom ratings, clinical study with CAE model; settings: for VAS Burning/Stinging Change from Baseline, ANCOVA LS Mean Difference (SE), BRM421 OS − Placebo / VAS Burning/Stinging Change from Baseline, Two-Sample t-test Sample Mean Difference (SE), BRM421 OS − Placebo / VAS Eye Dryness Change from Baseline, ANCOVA LS Mean Difference (SE), BRM421 OS − Placebo / VAS Eye Dryness Change from Baseline, Two-Sample t-test Sample Mean Difference (SE), BRM421 OS − Placebo / VAS Photophobia Change from Baseline, ANCOVA LS Mean Difference (SE), BRM421 OS − Placebo / VAS Photophobia Change from Baseline, Two-Sample t-test Sample Mean Difference (SE), BRM421 OS − Placebo / VAS Burning/Stinging Change from Baseline, ANCOVA LS Mean (SE) / VAS Eye Dryness Change from Baseline, ANCOVA LS Mean (SE) / VAS Photophobia Change from Baseline, ANCOVA LS Mean (SE) / VAS Burning/Stinging Change from Baseline, Mean (SD) / VAS Eye Dryness Change from Baseline, Mean (SD) / VAS Photophobia Change from Baseline, Mean (SD): ITT; for VAS Burning/Stinging Change from Baseline, ANCOVA LS Mean (SE) / VAS Eye Dryness Change from Baseline, ANCOVA LS Mean (SE) / VAS Photophobia Change from Baseline, ANCOVA LS Mean (SE) / VAS Burning/Stinging Change from Baseline, Mean (SD) / VAS Eye Dryness Change from Baseline, Mean (SD) / VAS Photophobia Change from Baseline, Mean (SD): baseline last Pre-CAE measure; for VAS Burning/Stinging Change from Baseline, Mean (SD) / VAS Eye Dryness Change from Baseline, Mean (SD) / VAS Photophobia Change from Baseline, Mean (SD): 0-100 mm line
Experimental: (§1) A multi-center, randomized, double masked, placebo controlled clinical study was conducted to assess the safety and efficacy of BRM421 ophthalmic solution (OS) in subjects with DED using a controlled adverse environment (CAE®) model (Ora, Inc., Andover, MA, USA). CAE® uses controlled ocular surface stress to exacerbate the signs and symptoms of DED in a safe and controllable manner.
(§2) During the first visit (Day-7±1), the subjects were screened, evaluated before CAE®, exposed to CAE®, evaluated after CAE®, and started with the placebo run-in period (7±1 days). During the 7-day study run-in period (for the purpose of subject selection) prior to randomization, all subjects received Placebo OS bilaterally, three times daily (TID). During the second visit, subjects were evaluated before CAE®, exposed to CAE®, and evaluated after CAE®. These evaluations formed the baseline measurements. The subjects were then randomized into two groups to receive either BRM421 ophthalmic solution (OS) or Placebo OS (Vehicle) bilaterally three times daily (TID) for 14 days from Visit 2 to Visit 4.
During these visits, subjects were evaluated for symptom efficacy. Specifically, visual analog scale (VAS) was measured by asking subjects to rate each ocular symptom due to ocular dryness. Symptoms assessed include burning/stinging, itching, foreign body sensation, blurred vision, eye dryness, photophobia, and pain.

[2] = tested on: subjects with DED; test: Ora Ocular Discomfort & 4-Symptom Questionnaire (ODS) diary, clinical study with CAE model; settings: for Diary Dryness Change from Baseline, ANCOVA LS Mean (SE) / Diary Dryness Change from Baseline, Mean (SD) / Diary Burning Change from Baseline, ANCOVA LS Mean (SE) / Diary Ocular Discomfort Change from Baseline, ANCOVA LS Mean (SE) / Diary Burning Change from Baseline, Mean (SD) / Diary Ocular Discomfort Change from Baseline, Mean (SD): ITT observed data; for Diary Dryness Change from Baseline, Mean (SD) / Diary Burning Change from Baseline, Mean (SD) / Diary Ocular Discomfort Change from Baseline, Mean (SD): score 0 = None to 5 = Worst
Experimental: as §1, §2
Subjects were also asked to grade the severity of their dry eye disease symptoms in their diary in the morning and in the evening before instilling the study drug. The Ora Ocular Discomfort & 4-Symptom Questionnaire (ODS Questionnaire) was used, which included rating the severity of 5 symptoms: ocular discomfort, burning, dryness, grittiness, and stinging. Each symptom rating ranged from 0 to 5, where 0=None and 5=Worst.

[3] = tested on: subjects with DED; test: Corneal damage repair assessed with fluorescein staining, clinical study
Experimental: as §1, §2
Severe dry eye cases can lead to cornea damages, which can be assessed with fluorescein staining. PDSP of the invention can treat DED. In addition, these PDSP can also repair corneal damages. […] The selective efficacies of BRM421 treatment in cataract patients are unexpected.

[4] = Visit 3, post-CAE evaluations as baselines
[5] = Day 1 to Day 7, morning, pre-CAE baseline
[6] = Day 8 to 15, Evening, score 0-5
[7] = Day 8 to 15, Morning, score 0-5

## SLGAEQRTESIIHRALYYDLISSPDIHGT (listed as Homo sapiens) [BRM421, PEDF-derived short peptide, 29mer, residues 93-121; tested as BRM421 ophthalmic solution (OS)]
[1]; DED and cataract, with or without cataract surgery
  VAS burning/stinging compared to placebo (FIG. 4C, FIG. 4D): significant improvements
[1]; FIG. 4D versus FIG. 4C
  VAS burning/stinging, subjects with cataract surgery compared to subjects without cataract surgery: more improvements
[1]; Visit 3 (Day 8)
  VAS Burning/Stinging Change from Baseline, ANCOVA LS Mean Difference (SE), BRM421 OS − Placebo: −6.8 (2.31) mm
  VAS Burning/Stinging Change from Baseline, Two-Sample t-test Sample Mean Difference (SE), BRM421 OS − Placebo: −5.9 (2.58) mm
  VAS Eye Dryness Change from Baseline, ANCOVA LS Mean Difference (SE), BRM421 OS − Placebo: −5.3 (2.33) mm
  VAS Eye Dryness Change from Baseline, Two-Sample t-test Sample Mean Difference (SE), BRM421 OS − Placebo: −4.7 (2.53) mm
  VAS Photophobia Change from Baseline, ANCOVA LS Mean Difference (SE), BRM421 OS − Placebo: −4.5 (2.19) mm
  VAS Photophobia Change from Baseline, Two-Sample t-test Sample Mean Difference (SE), BRM421 OS − Placebo: −4.2 (2.33) mm
  VAS Burning/Stinging Change from Baseline, ANCOVA LS Mean (SE): −9.8 (1.67) mm
  VAS Eye Dryness Change from Baseline, ANCOVA LS Mean (SE): −9.4 (1.69) mm
  VAS Photophobia Change from Baseline, ANCOVA LS Mean (SE): −6.2 (1.59) mm
  VAS Burning/Stinging Change from Baseline, Mean (SD): −8.8 (20.35) mm
  VAS Eye Dryness Change from Baseline, Mean (SD): −8.4 (19.22) mm
  VAS Photophobia Change from Baseline, Mean (SD): −5.6 (15.49) mm
[1]; Visit 3, ITT Population, FIG. 2A
  Mean changes from baseline in burning/stinging, eye dryness and photophobia compared to placebo: significant difference
[1]; [4]
  VAS burning/stinging relative to placebo (FIG. 2B): significant improvement
  VAS dryness relative to placebo (FIG. 2B): less significant improvement
[1]; Visit 3, pre-CAE evaluations as baselines
  VAS dryness and VAS burning/stinging relative to placebo (FIG. 2B): significant improvements
[1]; Visit 4 (Day 15)
  VAS Burning/Stinging Change from Baseline, ANCOVA LS Mean Difference (SE), BRM421 OS − Placebo: −3.8 (2.58) mm
  VAS Burning/Stinging Change from Baseline, Two-Sample t-test Sample Mean Difference (SE), BRM421 OS − Placebo: −2.9 (2.85) mm
  VAS Eye Dryness Change from Baseline, ANCOVA LS Mean Difference (SE), BRM421 OS − Placebo: 0.8 (2.66) mm
  VAS Eye Dryness Change from Baseline, Two-Sample t-test Sample Mean Difference (SE), BRM421 OS − Placebo: 1.2 (2.80) mm
  VAS Photophobia Change from Baseline, ANCOVA LS Mean Difference (SE), BRM421 OS − Placebo: −3.5 (2.26) mm
  VAS Photophobia Change from Baseline, Two-Sample t-test Sample Mean Difference (SE), BRM421 OS − Placebo: −3.2 (2.40) mm
  VAS Burning/Stinging Change from Baseline, ANCOVA LS Mean (SE): −10.0 (1.86) mm
  VAS Eye Dryness Change from Baseline, ANCOVA LS Mean (SE): −9.2 (1.92) mm
  VAS Photophobia Change from Baseline, ANCOVA LS Mean (SE): −7.8 (1.63) mm
  VAS Burning/Stinging Change from Baseline, Mean (SD): −9.0 (21.26) mm
  VAS Eye Dryness Change from Baseline, Mean (SD): −8.4 (21.48) mm
  VAS Photophobia Change from Baseline, Mean (SD): −7.3 (16.50) mm
[1]; Visits 3 and 4 relative to Visit 2 pre-CAE baseline
  VAS dryness, burning/stinging and photophobia versus baseline (FIG. 2A): showed improvements over the baseline
[1]; inferred from significant difference to placebo at Visit 3
  Onset of effects: relatively fast onset
[1]; patients with both DED and cataract, pre-CAE and post-CAE evaluations
  VAS burning/stinging (FIG. 4B): very significant improvements
[1]; patients with only DED (without cataract), pre-CAE or post-CAE evaluations
  VAS burning/stinging (FIG. 4A): no significant improvements
[1]; subjects with cataract regardless of the surgery status, pre-CAE and post-CAE evaluations
  VAS dryness (FIG. 4G, FIG. 4H): significant improvements
[1]; subjects with cataract, pre-CAE and post-CAE evaluations
  VAS dryness compared to placebo (FIG. 4F): significant improvements
[1]; subjects without cataract, pre-CAE and post-CAE evaluations
  VAS dryness compared to placebo (FIG. 4E): did not show significant improvements
[2]; Day 1 to 7, Evening, score 0-5
  Diary Dryness Change from Baseline, ANCOVA LS Mean (SE): −0.243 (0.0484)
  Diary Dryness Change from Baseline, ANCOVA LS Mean Difference (SE), BRM421 OS − Placebo: −0.145 (0.0671)
  Diary Dryness Change from Baseline, Two-Sample t-test Mean Difference (SE), BRM421 OS − Placebo: −0.140 (0.0673)
[2]; Day 1 to 7, Evening
  Diary Dryness Change from Baseline, Mean (SD): −0.241 (0.5137)
[2]; Day 1 to 7, Morning, score 0-5
  Diary Burning Change from Baseline, ANCOVA LS Mean (SE): −0.254 (0.0528)
  Diary Ocular Discomfort Change from Baseline, ANCOVA LS Mean (SE): −0.138 (0.0518)
  Diary Burning Change from Baseline, ANCOVA LS Mean Difference (SE), BRM421 OS − Placebo: −0.173 (0.0731)
  Diary Burning Change from Baseline, Two-Sample t-test Sample Mean Difference (SE), BRM421 OS − Placebo: −0.172 (0.0742)
  Diary Ocular Discomfort Change from Baseline, ANCOVA LS Mean Difference (SE), BRM421 OS − Placebo: −0.146 (0.0717)
  Diary Ocular Discomfort Change from Baseline, Two-Sample t-test Sample Mean Difference (SE), BRM421 OS − Placebo: −0.152 (0.0727)
[2]; Day 1 to 7, Morning
  Diary Burning Change from Baseline, Mean (SD): −0.256 (0.5580)
  Diary Ocular Discomfort Change from Baseline, Mean (SD): −0.149 (0.5064)
[2]; Day 1 to Day 7, evening
  Diary ocular discomfort and burning improvement from baseline compared to placebo: not significant in the evening
[2]; Day 1 to Day 7, evening, pre-CAE baseline
  Diary dryness improvement from baseline compared to placebo (FIG. 3A): significantly better improvement
[2]; [5]
  Diary dryness improvement from baseline compared to placebo (FIG. 3A): not significantly better in the morning
  Diary ocular discomfort and burning improvement from baseline compared to placebo: significantly better improvements
[2]; [6]
  Diary Dryness Change from Baseline, ANCOVA LS Mean (SE): −0.377 (0.0651)
  Diary Dryness Change from Baseline, ANCOVA LS Mean Difference (SE), BRM421 OS − Placebo: −0.036 (0.0901)
  Diary Dryness Change from Baseline, Two-Sample t-test Sample Mean Difference (SE), BRM421 OS − Placebo: −0.029 (0.0915)
[2]; Day 8 to 15, Evening
  Diary Dryness Change from Baseline, Mean (SD): −0.382 (0.6917)
[2]; [7]
  Diary Burning Change from Baseline, ANCOVA LS Mean (SE): −0.313 (0.0640)
  Diary Ocular Discomfort Change from Baseline, ANCOVA LS Mean (SE): −0.223 (0.0656)
  Diary Burning Change from Baseline, ANCOVA LS Mean Difference (SE), BRM421 OS − Placebo: −0.048 (0.0884)
  Diary Burning Change from Baseline, Two-Sample t-test Sample Mean Difference (SE), BRM421 OS − Placebo: −0.048 (0.0939)
  Diary Ocular Discomfort Change from Baseline, ANCOVA LS Mean Difference (SE), BRM421 OS − Placebo: −0.049 (0.0906)
  Diary Ocular Discomfort Change from Baseline, Two-Sample t-test Sample Mean Difference (SE), BRM421 OS − Placebo: −0.058 (0.0936)
[2]; Day 8 to 15, Morning
  Diary Burning Change from Baseline, Mean (SD): −0.332 (0.7199)
  Diary Ocular Discomfort Change from Baseline, Mean (SD): −0.248 (0.6696)
[2]; Visit 3, both pre-CAE and post-CAE evaluations as baselines
  ODS dryness versus placebo (FIG. 3B): no significant difference
[2]; Visit 3, post-CAE evaluations
  ODS burning and ODS stinging versus placebo (FIG. 3B): significant effects
[3]; patients with cataract and surgery
  Corneal damage repair compared to placebo (FIG. 5D): slight improvements
[3]; patients with cataract but without surgery
  Corneal damage repair compared to placebo (FIG. 5C): significant improvements; also recorded: more significant
[3]; subjects with cataract
  Corneal damage repair compared to placebo (FIG. 5B): significant improvements
[3]; subjects without cataract
  Corneal damage repair (FIG. 5A): did not show significant improvements
